21 compounds from US5919788A, “4-(1H-indol-1-yl)-1-piperidinyl derivatives” (Janssen Pharmaceutica, N.V., priority 1995, dated 1999) can be followed below.

The ED50 is the dose at which the effect has come halfway, by size or by number of responders.

What all share (assay type): in vivo
In one assay the test system is serotonin. The assay can be described thus: combined apomorphine, tryptamine, norepinephrine (ATN) test in rats: tryptamine (TRY), central (convulsions) and peripheral (hyperaemia) serotonin antagonism. Conditions: Rattus norvegicus.
The subject of a further assay is norepinephrine. The assay can be described thus: combined apomorphine, tryptamine, norepinephrine (ATN) test in rats: norepinephrine (NOR), peripheral α-adrenergic antagonism. As to conditions: Rattus norvegicus, read-out: NOR, ED50.
The next assay has as its system dopamine. The assay can be described thus: combined apomorphine, tryptamine, norepinephrine (ATN) test in rats: apomorphine (APO), central dopamine antagonism. As to conditions: Rattus norvegicus, preventing the symptoms elicited with apomorphine.
[1] abbreviates: preventing central symptoms (convulsions), central serotonin antagonism, read-out: TRY convulsions, ED50.
Setting [2] is: preventing peripheral symptoms (hyperaemia), peripheral serotonin antagonism, read-out: TRY hyperaemia, ED50.
Where [3] appears, read: preventing or delaying death upon administration of norepinephrine, rats, peripheral α-adrenergic antagonism.

Where two headings read alike, the source gives them in different places.

As to `Cc1nc2n(c(=O)c1CCN1CCC(n3ccc4ccccc43)CC1)CCS2` [Compound 1, 2,3-dihydro-6[2-[4-(1H-indol-1-yl)-1-piperidinyl]ethyl]-7-methyl-5H-thiazolo[3,2-a]-pyrimidin-5-one], the ED50 in the assay on serotonin (setting [1]) is 0.63 mg/kg; in the assay with serotonin (setting [2]), 0.04 mg/kg; in the assay with norepinephrine it was over 10 mg/kg; in the assay with dopamine it was 0.63 mg/kg.

On to `Cc1nc2n(c(=O)c1CCN1CCC(n3ccc4cc(F)ccc43)CC1)CCS2` [Compound 2], for which the ED50 came out at 0.63 mg/kg in the assay with serotonin (setting [1]), 0.01 mg/kg with serotonin (setting [2]), 10 mg/kg in the assay with norepinephrine and 0.16 mg/kg in the assay on dopamine.

On to `Cc1nc2sccn2c(=O)c1CCN1CCC(n2ccc3ccccc32)CC1` [Compound 3, 6-[2-[4-(1H-indol-1-yl)-1-piperidinyl]ethyl]-7-methyl-5H-thiazolo[3,2-a]pyrimidin-5-one], for which the 50% effective dose (ED50) in the assay with serotonin (setting [1]) is 0.16 mg/kg; in the assay on serotonin (setting [2]), 0.01 mg/kg; with norepinephrine it was over 10 mg/kg; in the assay on dopamine, 0.16 mg/kg.

As to `Cc1nc2sccn2c(=O)c1CCN1CCC(n2ccc3cc(F)ccc32)CC1` [Compound 4, 6-[2-[4-(5-fluoro-1H-indol-1-yl)-1-piperidinyl]ethyl]-7-methyl-5H-thiazolo[3,2-a]-pyrimidin-5-one], the median effective dose (ED50) with serotonin (setting [1]) worked out at 0.04 mg/kg; with serotonin (setting [2]), 0.01 mg/kg; in the assay with norepinephrine, 2.5 mg/kg; with dopamine, 0.04 mg/kg.

Consider `Cc1nc2sccn2c(=O)c1CCN1CCC(N2CCc3ccccc32)CC1` [Compound 5], for which the results for the ED50 in the assay with serotonin (setting [1]), in the assay on serotonin (setting [2]) and in the assay on dopamine were 0.31 mg/kg, 0.02 mg/kg and 0.08 mg/kg, respectively.

For the compound `Cc1nc2scc(C)n2c(=O)c1CCN1CCC(n2ccc3ccccc32)CC1` [Compound 6, 6-[2-[4-(1H-indol-1-yl)-1-piperidinyl]ethyl]-3,7-dimethyl-5H-thiazolo[3,2-a]pyrimidin-5-one], the 50% effective dose (ED50) was 0.16 mg/kg with serotonin (setting [1]), 0.01 mg/kg with serotonin (setting [2]), 10 mg/kg in the assay with norepinephrine and 0.16 mg/kg with dopamine.

On to `Cc1nn2c(=O)c(CCN3CCC(n4ccc5cc(F)ccc54)CC3)c(C)nc2s1` [Compound 8, 6-[2-[4-(5-fluoro-1H-indol-1-yl)-1-piperidinyl]-ethyl]-2,7-dimethyl-5H-1,3,4-thiadiazolo[3,2-a]pyrimidin-5-one], for which the ED50 amounted to 0.63 mg/kg with serotonin (setting [1]), 0.04 mg/kg in the assay on serotonin (setting [2]), 10 mg/kg in the assay on norepinephrine and 0.63 mg/kg in the assay on dopamine.

Consider `Cc1cc2nc(C)c(CCN3CCC(n4ccc5cc(F)ccc54)CC3)c(=O)n2o1` [Compound 10], for which the ED50 with serotonin (setting [1]) was determined as 0.16 mg/kg; in the assay on serotonin (setting [2]) it was 0.0025 mg/kg; with norepinephrine, 10 mg/kg; with dopamine, 0.63 mg/kg.

Take `Cc1nc2n(c(=O)c1CCN1CCC(n3ccc4cc(F)ccc43)CC1)CCCC2` [Compound 12, 3-[2-[4-(5-fluoro-1H-indol-1-yl)-1-piperidinyl]ethyl]-6,7,8,9-tetrahydro-2-methyl-4H-pyrido[1,2-a]pyrimidin-4-one]: the ED50 in the assay on serotonin (setting [1]) was 0.31 mg/kg; in the assay with serotonin (setting [2]), 0.02 mg/kg; in the assay with norepinephrine, over 10 mg/kg; in the assay on dopamine it was 0.31 mg/kg.

As to `COC1CCCn2c1nc(C)c(CCN1CCC(n3ccc4cc(F)ccc43)CC1)c2=O` (centres unmarked) [Compound 15], the 50% effective dose (ED50) in the assay with serotonin (setting [1]) worked out at 0.63 mg/kg; in the assay on serotonin (setting [2]) it was 0.01 mg/kg; in the assay on norepinephrine, 10 mg/kg; in the assay with dopamine, 0.16 mg/kg.

On to `Cc1nc2n(c(=O)c1CCN1CCC(n3ccc4ccccc43)CC1)CCCS2` [Compound 16], for which the 50% effective dose (ED50) with serotonin (setting [1]) came out at 0.63 mg/kg; in the assay on serotonin (setting [2]) it was 0.02 mg/kg; in the assay on norepinephrine, 10 mg/kg; in the assay on dopamine it was 0.16 mg/kg.

In the case of `Cc1nc2n(c(=O)c1CCN1CCC(n3ccc4cc(F)ccc43)CC1)CCCS2` [Compound 17], the ED50 was 0.16 mg/kg in the assay on serotonin (setting [1]), 0.02 mg/kg in the assay with serotonin (setting [2]), 5 mg/kg in the assay on norepinephrine (setting [3]) and 0.08 mg/kg with dopamine.

On to `Cc1nc2ccccn2c(=O)c1CCN1CCC(n2ccc3cc(F)ccc32)CC1` [Compound 18], for which the 50% effective dose (ED50) in the assay on serotonin (setting [1]) was 0.08 mg/kg; in the assay with serotonin (setting [2]) it was 0.01 mg/kg; in the assay on norepinephrine (setting [3]), 5 mg/kg; in the assay with dopamine, 0.08 mg/kg.

`Cc1nc2c(C)cccn2c(=O)c1CCN1CCC(n2ccc3ccccc32)CC1` [Compound 19]: the ED50 is 2.5 mg/kg with serotonin (setting [1]), 0.63 mg/kg with serotonin (setting [2]), over 10 mg/kg with norepinephrine and 0.63 mg/kg with dopamine.

`Cc1nc2c(C)cccn2c(=O)c1CCN1CCC(n2ccc3cc(F)ccc32)CC1` [Compound 20]: the ED50 was 0.63 mg/kg with serotonin (setting [1]), 0.16 mg/kg in the assay on serotonin (setting [2]), over 10 mg/kg in the assay with norepinephrine and 0.63 mg/kg with dopamine.

Regarding `CNc1nc(C)c(CCN2CCC(n3ccc4cc(F)ccc43)CC2)c(=O)n1C` [Compound 24, 5-[2-[4-(5-fluoro-1H-indol-1-yl)-1-piperidinyl]ethyl]-3,6-dimethyl-2-(methylamino)-4(3H)-pyrimidinone], the ED50 came to 0.16 mg/kg in the assay on serotonin (setting [1]), 0.01 mg/kg with serotonin (setting [2]), 10 mg/kg in the assay on norepinephrine and 0.63 mg/kg in the assay with dopamine.

Take `CCSc1nc(C)c(CCN2CCC(n3ccc4ccccc43)CC2)c(=O)n1C` [Compound 25]: the ED50 in the assay on serotonin (setting [1]) is 2.5 mg/kg; in the assay on serotonin (setting [2]), 0.16 mg/kg; with norepinephrine, over 10 mg/kg; with dopamine, 0.63 mg/kg.

On to `O=C(O)/C=C/C(=O)O.O=c1[nH]c2ccccc2n1CCCN1CCC(n2ccc3cc(F)ccc32)CC1` [Compound 28, 1-[3-[4-(5-fluoro-1H-indol-1-yl)-1-piperidinyl]propyl]-1,3-dihydro-2H-benzimidazol-2-one (E)-2-butenedioate (1:1)], for which the figures for the 50% effective dose (ED50) in the assay on serotonin (setting [1]), in the assay on serotonin (setting [2]) and with norepinephrine were 0.16 mg/kg, 0.01 mg/kg and over 10 mg/kg, respectively.

Turning to `Cc1nc2n(c(=O)c1CCN1CCC(n3ccc4cc(F)ccc43)CC1)C(C)CCC2` (centres unmarked) [Compound 29], the ED50 in the assay on serotonin (setting [1]) worked out at 0.31 mg/kg; in the assay on serotonin (setting [2]) it was 0.005 mg/kg; in the assay with norepinephrine (setting [3]), 5 mg/kg; in the assay with dopamine, 0.08 mg/kg.

With `Cc1nc2n(c(=O)c1CCN1CCC(N3CCc4ccccc43)CC1)CCCC2` [Compound 31], the ED50 in the assay with serotonin (setting [1]) was determined as 1.25 mg/kg; in the assay on serotonin (setting [2]), 0.31 mg/kg; in the assay on dopamine, 1.25 mg/kg.

As to `Cc1nc2n(c(=O)c1CCN1CCC(N3c4ccccc4CC3C)CC1)CCCC2` (centres unmarked) [Compound 34], the median effective dose (ED50) in the assay with serotonin (setting [1]) was over 10 mg/kg; in the assay with serotonin (setting [2]) it was at most 0.63 mg/kg; in the assay with dopamine, 5 mg/kg.
